Experimental data from patent publication US9873693B2 (Sunesis Pharmaceuticals, Inc., priority 2006, dated 2018).
pEC50, pIC50: −log10 of the molar value. Read-outs that look alike come from different tables or passages of the source.

Experiments:
phosphorylated PDK1 = phosphorylated PDK1 (Homo sapiens (Human), UniProt O15530); assay: PDK1 kinase assay (coupled PDK1/AKT/FAM-crosstide, IMAP); type: biochemical; details: 0.5 nM phosphorylated PDK1, 24 μM ATP; read-out: Inhibition of phospo-PDK1 in vitro IC50
Chain of phosphorylated PDK1 (O15530 51-360): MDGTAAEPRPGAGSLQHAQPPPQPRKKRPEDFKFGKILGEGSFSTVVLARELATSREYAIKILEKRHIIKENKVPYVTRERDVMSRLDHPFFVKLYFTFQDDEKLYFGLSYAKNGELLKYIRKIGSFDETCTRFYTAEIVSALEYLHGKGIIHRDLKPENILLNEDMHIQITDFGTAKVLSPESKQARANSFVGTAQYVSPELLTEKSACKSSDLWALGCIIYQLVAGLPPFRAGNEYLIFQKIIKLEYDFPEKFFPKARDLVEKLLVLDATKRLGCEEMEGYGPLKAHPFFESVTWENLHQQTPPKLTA

phospho-akt (Thr308) = phospho-akt (Thr308) MSD ELISA in PC-3 cells; type: cell-based; details: for pEC50: read-out: Inhibition of P308 Akt in cells using MSD EC50; for inhibition at 1 µM / inhibition at 10 µM: read-out: Percent Inhibition of phospho-Akt (308) By MSD ELISA; for EC50: read-out: Reduction of Cellular Levels of Akt p308 By MSD ELISA (EC50 μM)
Method: PC-3 cells were harvested by trypsin and counted. Cells were plated in coated 96-well flat bottom plates (plate 15,000 cells/well in 100 ul growth media (10% FBS, 1× pen-strep) an place in an incubator overnight.
Subject inhibitors were stocked at 50 mM, then diluted to 30 mM (4.8 μl cpd plus […] DMSO) in 100% DMSO. Three-fold dilutions were performed from 30 mM stock. (4 μl into 8 ul 100% DMSO). Aliquots of 1.0 μl of inhibitor solution were transferred into SF Medium (using deep well block).
Control wells were prepared as follows. For DMSO high controls, 1.0 μl of 100% DMSO was added into 1.0 ml SF.
MSD plates were blocked for 1 hour by adding 150 μl of Blocking Solution (3% BSA) to each well. The MSD plates were washed 4× with TBST, and 50 μl lysates were transferred to MSD plate and place on plate shaker shake at 4 degrees O/N, light shaking (speed 3.5). The plate was washed 4× with TBST.
25 μl of Ab detection solution was added to each well. The plate was sealed and incubated 1 hr RT, light shaking (speed 3.5). The plate was washed 4 times with TBST. 150 μl of Read Buffer was added (5 mls 4×MSD Read Buffer+15 mls water). Finally the plate was read immediately on the MSD plate reader.

[1] = Homo sapiens, PC-3, 2 h, PC-3 cells, 2 hours, no serum

| SMILES | pIC50 (phosphorylated PDK1) | pEC50 (phospho-akt (Thr308); [1]) | EC50 (phospho-akt (Thr308); [1]) [µM] | further results |
| --- | --- | --- | --- | --- |
| O=C(NCc1cccc(-c2c[nH]c3ncccc23)n1)c1cccn(Cc2ccc(F)c(F)c2)c1=O [Cpd 4] | > 6.30 | 5.30 to 6.00 | – | inhibition at 1 µM (phospho-akt (Thr308); Homo sapiens, PC-3 cells): 25 to 75%; inhibition at 10 µM (phospho-akt (Thr308); Homo sapiens, PC-3 cells): > 75% |
| O=C(NCc1cccc(-c2n[nH]c3ncccc23)c1)c1cccn(Cc2ccc(F)c(F)c2)c1=O [Cpd 6] | > 6.30 | 5.30 to 6.00 | – | inhibition at 1 µM (phospho-akt (Thr308); Homo sapiens, PC-3 cells): 25 to 75%; inhibition at 10 µM (phospho-akt (Thr308); Homo sapiens, PC-3 cells): 25 to 75% |
| O=C(NCc1cccc(-c2c[nH]c3nccnc23)c1)c1cccn(Cc2ccc(F)c(F)c2)c1=O [Cpd 13] | > 6.30 | 5.30 to 6.00 | – | inhibition at 1 µM (phospho-akt (Thr308); Homo sapiens, PC-3 cells): 25 to 75%; inhibition at 10 µM (phospho-akt (Thr308); Homo sapiens, PC-3 cells): > 75% |
| O=C(O)c1cnc2[nH]cc(-c3cccc(CNC(=O)c4cccn(Cc5ccc(F)c(F)c5)c4=O)c3)c2c1 [Cpd 20] | > 6.30 | – | > 5 | – |
| O=C(NCc1cccc(-c2c[nH]c3ncc(Cl)cc23)c1)c1cccn(Cc2ccc(F)c(F)c2)c1=O [Cpd 22] | > 6.30 | 5.30 to 6.00 | 1 to 5 | – |
| CC(C)Oc1cc(CNC(=O)c2cccn(Cc3ccc(F)c(F)c3)c2=O)cc(-c2c[nH]c3ncccc23)c1 [Cpd 25] | > 6.30 | – | – | pEC50 (phospho-akt (Thr308); Homo sapiens, PC-3, 2 h): > 6.00; EC50 (phospho-akt (Thr308); Homo sapiens, PC-3, 2 h): < 1 µM |
| NC(=O)c1cnc2[nH]cc(-c3cccc(CNC(=O)c4cccn(Cc5ccc(F)c(F)c5)c4=O)c3)c2c1 [Cpd 26] | > 6.30 | > 6.00 | < 1 | – |
| CN(C)C(=O)c1cnc2[nH]cc(-c3cccc(CNC(=O)c4cccn(Cc5ccc(F)c(F)c5)c4=O)c3)c2c1 [Cpd 27] | > 6.30 | > 6.00 | < 1 | – |
| CCNC(=O)c1cnc2[nH]cc(-c3cccc(CNC(=O)c4cccn(Cc5ccc(F)c(F)c5)c4=O)c3)c2c1 [Cpd 28] | > 6.30 | > 6.00 | < 1 | – |
| CCCNC(=O)c1cnc2[nH]cc(-c3cccc(CNC(=O)c4cccn(Cc5ccc(F)c(F)c5)c4=O)c3)c2c1 [Cpd 29] | > 6.30 | > 6.00 | < 1 | – |
| COCCNC(=O)c1cnc2[nH]cc(-c3cccc(CNC(=O)c4cccn(Cc5ccc(F)c(F)c5)c4=O)c3)c2c1 [Cpd 30] | > 6.30 | > 6.00 | < 1 | – |
| CCNC(=O)C[C@@H](NC(=O)c1cccn(Cc2ccc(F)c(F)c2)c1=O)c1ccc(-c2c[nH]c3ncccc23)s1 [Cpd 31] | > 6.30 | 5.30 to 6.00 | 1 to 5 | – |
| CCCNC(=O)C[C@@H](NC(=O)c1cccn(Cc2ccc(F)c(F)c2)c1=O)c1ccc(-c2c[nH]c3ncccc23)s1 [Cpd 32] | > 6.30 | – | – | pEC50 (phospho-akt (Thr308); Homo sapiens, PC-3, 2 h): 5.30 to 6.00; EC50 (phospho-akt (Thr308); Homo sapiens, PC-3, 2 h): 1 to 5 µM |
| O=C(C[C@@H](NC(=O)c1cccn(Cc2ccc(F)c(F)c2)c1=O)c1ccc(-c2c[nH]c3ncccc23)s1)NC1CC1 [Cpd 33] | > 6.30 | 5.30 to 6.00 | 1 to 5 | – |
| COCCNC(=O)C[C@@H](NC(=O)c1cccn(Cc2ccc(F)c(F)c2)c1=O)c1ccc(-c2c[nH]c3ncccc23)s1 [Cpd 34] | > 6.30 | 5.30 to 6.00 | 1 to 5 | – |
| O=C(Nc1cccc2ccc(-c3c[nH]c4ncccc34)cc12)c1cccn(Cc2ccc(F)c(F)c2)c1=O [Cpd 35] | > 6.30 | < 5.30 | < 1 | – |
| C[Si](C)(C)CCOCn1nc(NC(=O)c2cccn(Cc3ccc(F)c(F)c3)c2=O)c2cc(-c3c[nH]c4ncccc34)ccc21 [Cpd 36] | > 6.30 | – | – | pEC50 (phospho-akt (Thr308); Homo sapiens, PC-3, 2 h): < 5.30; EC50 (phospho-akt (Thr308); Homo sapiens, PC-3, 2 h): > 5 µM |
| NCc1cnc2[nH]cc(-c3cccc(CNC(=O)c4cccn(Cc5ccc(F)c(F)c5)c4=O)c3)c2c1 [Cpd 37] | > 6.30 | – | – | pEC50 (phospho-akt (Thr308); PC-3 cells, 2 hours, no serum): 5.30 to 6.00 |
| NC(=O)c1cnc2[nH]cc(-c3ccc(CNC(=O)c4cccn(Cc5ccc(F)c(F)c5)c4=O)s3)c2c1 [Cpd 39] | > 6.30 | > 6.00 | < 1 | – |
| CNC(=O)c1cnc2[nH]cc(-c3ccc(CNC(=O)c4cccn(Cc5ccc(F)c(F)c5)c4=O)s3)c2c1 [Cpd 40] | > 6.30 | 5.30 to 6.00 | 1 to 5 | – |
| CCNC(=O)c1cnc2[nH]cc(-c3ccc(CNC(=O)c4cccn(Cc5ccc(F)c(F)c5)c4=O)s3)c2c1 [Cpd 41] | > 6.30 | > 6.00 | < 1 | – |
| O=C(Cc1cccc(C2CNc3ncccc32)c1)Nc1cccn(Cc2ccc(F)c(F)c2)c1=O (stereo not drawn) [Cpd 44] | > 6.30 | 5.30 to 6.00 | – | – |
| O=C(NCc1cccc(-c2c[nH]c3ncc(-c4cccnc4)cc23)c1)c1cccn(Cc2ccc(F)c(F)c2)c1=O [Cpd 47] | > 6.30 | > 6.00 | – | – |
| O=C(NCc1cccc(-c2c[nH]c3ncc(-c4ccncc4)cc23)c1)c1cccn(Cc2ccc(F)c(F)c2)c1=O [Cpd 48] | > 6.30 | > 6.00 | – | – |
| O=C(NCc1cc(O)cc(-c2c[nH]c3ncccc23)c1)c1cccn(Cc2ccc(F)c(F)c2)c1=O [Cpd 49] | > 6.30 | 5.30 to 6.00 | – | – |

| SMILES | pIC50 (phosphorylated PDK1) | pEC50 (phospho-akt (Thr308); [1]) | EC50 (phospho-akt (Thr308); [1]) [µM] | further results |
| --- | --- | --- | --- | --- |
| O=C(NCc1cccc(-c2c[nH]c3nccc(Cl)c23)c1)c1cccn(Cc2ccc(F)c(F)c2)c1=O [Cpd 50] | > 6.30 | 5.30 to 6.00 | – | – |
| O=C(NCc1cccc(-c2c[nH]c3ncc(-c4cccs4)cc23)c1)c1cccn(Cc2ccc(F)c(F)c2)c1=O [Cpd 51] | > 6.30 | 5.30 to 6.00 | – | – |
| O=C(NCc1cccc(-c2c[nH]c3ncc(-c4ccoc4)cc23)c1)c1cccn(Cc2ccc(F)c(F)c2)c1=O [Cpd 53] | > 6.30 | > 6.00 | – | – |
| O=C(NCc1ccc(-c2c[nH]c3nccc(Cl)c23)s1)c1cccn(Cc2ccc(F)c(F)c2)c1=O [Cpd 55] | > 6.30 | 5.30 to 6.00 | – | – |
| O=C(NCc1cc(OCCN2CCOCC2)cc(-c2c[nH]c3ncccc23)c1)c1cccn(Cc2ccc(F)c(F)c2)c1=O [Cpd 56] | > 6.30 | 5.30 to 6.00 | – | – |
| O=C(NCc1ccc(-c2ccc3cn[nH]c3c2)s1)c1cccn(Cc2ccc(F)c(F)c2)c1=O [Cpd 59] | > 6.30 | 5.30 to 6.00 | – | – |
| CN(C)CCOc1cc(CNC(=O)c2cccn(Cc3ccc(F)c(F)c3)c2=O)cc(-c2c[nH]c3ncccc23)c1 [Cpd 60] | > 6.30 | 5.30 to 6.00 | – | – |
| Nc1ncccc1-c1ccc(CNC(=O)c2cccn(Cc3ccc(F)c(F)c3)c2=O)s1 [Cpd 97] | > 6.30 | 5.30 to 6.00 | – | – |
| CC(C)Oc1cc(CNC(=O)c2cccn(Cc3ccc(F)c(F)c3)c2=O)cc(-c2c[nH]c3ncc(F)cc23)c1 [Cpd 98] | > 6.30 | 5.30 to 6.00 | – | – |
| O=C(NCc1cccc(-c2c[nH]c3ncccc23)c1)c1cccn(Cc2ccc(F)c(F)c2)c1=O [Cpd 126] | > 6.30 | 5.30 to 6.00 | < 1 | – |
| O=C(NCc1nccc(-c2c[nH]c3ncccc23)n1)c1cccn(Cc2ccc(F)c(F)c2)c1=O [Cpd 146] | > 6.30 | < 5.30 | 1 to 5 | – |
| O=C(NC(COc1ccc2[nH]c(=O)[nH]c2c1)c1ccc(F)cc1)c1cccn(Cc2ccc(F)c(F)c2)c1=O (stereo not drawn) [Cpd 147] | > 6.30 | > 6.00 | < 1 | – |
| COC(=O)[C@H](COc1ccc2[nH]c(=O)[nH]c2c1)NC(=O)c1cccn(Cc2cc(F)c(F)c(F)c2)c1=O [Cpd 153] | > 6.30 | > 6.00 | – | – |
| O=C(NC/C=C/c1ccc2[nH]c(=O)[nH]c2c1)c1cccn(Cc2ccc(F)c(F)c2)c1=O [Cpd 160] | > 6.30 | < 5.30 | – | – |
| O=C(Nc1cccc(C(=O)n2ccc3ncccc32)c1)c1cccn(Cc2ccc(F)c(F)c2)c1=O [Cpd 229] | < 5.00 | – | – | – |
| O=C(c1cccn(Cc2ccc(F)c(F)c2)c1=O)N1CCN(C(=O)c2c[nH]c3ncccc23)CC1 [Cpd 233] | < 5.00 | – | – | – |
| O=C(O)c1cnc2[nH]cc(-c3cccc(CNC(=O)c4cccn(-c5cccc(F)c5F)c4=O)c3)c2c1 [Cpd 238] | > 6.30 | – | – | – |
| O=C(NCc1cccc(-c2c[nH]c3ncc(-c4nnn[nH]4)cc23)c1)c1cccn(Cc2ccc(F)c(F)c2)c1=O [Cpd 246] | > 6.30 | – | – | – |
| COc1ccnc(NCCC#CCCNC(=O)c2cccn(Cc3cccc(Cl)c3)c2=O)n1 [Cpd 250] | 5.00 to 6.30 | – | – | – |
| COc1ccnc(NCCCCCNC(=O)c2cccn(Cc3ccc(Cl)c(Cl)c3)c2=O)n1 [Cpd 251] | 5.00 to 6.30 | – | – | – |
| O=C(NCCCCc1c[nH]c2ncccc12)c1cc(Cl)cn(Cc2ccc(Cl)cc2)c1=O [Cpd 268] | > 6.30 | – | – | – |
| O=C(NCCCCc1c[nH]c2ncccc12)c1cccn(Cc2ccc(Cl)c(Cl)c2)c1=O [Cpd 269] | > 6.30 | – | – | – |
| O=C(NCC12CC3CC(C1)CC(c1c[nH]c4ncccc14)(C3)C2)c1cccn(Cc2ccc(F)c(F)c2)c1=O [Cpd 327] | 5.00 to 6.30 | – | – | – |
| O=C(N[C@H]1CC[C@H](c2c[nH]c3ncccc32)CC1)c1cccn(Cc2ccc(F)c(F)c2)c1=O [Cpd 337] | < 5.00 | – | – | – |
| O=C(NCCCCCCc1c[nH]c2ncccc12)c1cccn(Cc2ccc(F)c(F)c2)c1=O [Cpd 338] | > 6.30 | – | – | – |
